Experiments:
[1] = target: Nitric oxide synthase (neuronal, human recombinant) nNOS (Homo sapiens (Human), UniProt P29475); experiment: Human nNOS enzyme assay ([3H]-L-arginine to L-citrulline conversion); format: biochemical; conditions: for Selectivity eNOS/nNOS: ratio of human eNOS IC50 to human nNOS IC50; for IC50: recombinant human nNOS
Method: (§1) nNOS (Human), eNOS (Human) and iNOS (Human) Enzyme Assay
(§2) Primary stock solutions of test compounds at a concentration of 6 mM were prepared from the 2 to 5 mg powder. The primary stock solutions of each test compound were prepared freshly in distilled water on the day of study to obtain a final concentration of 6 mM. For determination of IC50 values, 12 test compound concentrations were prepared as 3-fold serial dilutions. Concentration range of test compound utilized for nNOS were 0.001 to 300 μM and for eNOS were 0.003 to 1000 μM. The vehicle of the test compound or inhibitor was used as blank control. For non-specific activity, 100 μM L-NMMA was used. Runs using the IC50 concentration of L-NAME were done in parallel as controls.
(§3) All incubations are performed in duplicate
(§4) The reaction mixture was prepared on ice by adding the following components with a micropipette to a polypropylene microcentrifuge tube: • 10 μL of test compound, inhibitor or control (vehicle or L-NMMA) solution; • 25 μL of Reaction Buffer {25 mM Tris-HCl, 0.6 μM BH4, 0.2 μM FMN, 0.2 μM FAD}; • 5 μL of 10 mM NADPH solution {1 mM} (freshly prepared in 10 mM Tris-HCl (pH 7.4); • 5 μL of 6 mM CaCl2 {600 W}; • 5 μL of 1 mM Calmodulin {100 W}; and • 5 μL of 0.02 μg/μL nNOS or 0.12 μg/μL eNOS.
(§5) The above reaction mixture was pre-incubated at room temperature for 15 mins.
(§6) The reaction was started by the addition of the substrate (in 5 μL containing 1 μCi of [^3H]-L-Arginine+2.5 μM of unlabeled L-Arginine) to the reaction mixture. Total reaction volume is 60 μL.
(§7) The reaction was mixed using a vortex mixer and incubate the above reaction mixture at 37° C. in an incubator for 30 minutes.
(§8) To stop the reaction, 400 μL of ice-cold Stop Buffer was added at the end of the incubation period.
(§9) The reaction was then mixed using a vortex mixer, and the reaction samples were transferred to spin cups, which were centrifuged using a microcentrifuge, at 13,000 rpm for 30 sec. at room temperature.
(§10) The spin cups were removed from the holder, 450 μL of eluate (containing the unbound L-citrulline) were transferred to scintillation vials. 3 mL of scintillation fluid were added and the radioactivity was quantified in a liquid scintillation counter.
(§11) Data was analyzed using a Sigmoidal dose-response (variable slope) curve to determine the IC50 value of the test compound. Y=Bottom+(Top−Bottom)/(1+10^((Log IC50−X)*Hill Slope))

[2] = target: Nitric oxide synthase (endothelial, human recombinant) eNOS (Homo sapiens (Human), UniProt P29474); experiment: Human eNOS enzyme assay ([3H]-L-arginine to L-citrulline conversion); format: biochemical
Method: as §1, §2, §3, §4, §5, §6, §7, §8, §9, §10, §11

[3] = target: Recombinant human inducible NOS (iNOS) (Homo sapiens (Human), UniProt P35228); experiment: Human iNOS enzyme assay (Protocol 1 or Protocol 2, radiometric); format: biochemical
Method: The human iNOS assay was carried by either one of the two protocols as described herein:
Recombinant human inducible NOS (iNOS) was produced in Baculovirus-infected Sf9 cells (ALEXIS). In a radiometric method, NO synthase activity was determined by measuring the conversion of [^3H]L-arginine to [^3H]L-citrulline. To measure iNOS, 10 μL of enzyme was added to 100 μL of 100 mM HEPES, pH=7.4, containing 1 mM CaCl2, 1 mM EDTA, 1 mM dithiothreitol, 1 μM FMN, 1 μM FAD, 10 μM tetrahydrobiopterin, 120 μM NADPH, and 100 nM CaM.
To measure enzyme inhibition, a 15 μL solution of a test substance was added to the enzyme assay solution, followed by a pre-incubation time of 15 min at RT. The reaction was initiated by addition of 20 μL L-arginine containing 0.25 μCi of [^3H] arginine/mL and 24 μM L-arginine. The total volume of the reaction mixture was 150 μL in every well. The reactions were carried out at 37° C. for 45 minutes, The reaction was stopped by adding 20 μL of ice-cold buffer containing 100 mM HEPES, 3 mM EGTA, 3 mM EDTA, pH=5.5. [^3H]L-citrulline was separated by DOWEX (ion-exchange resin DOWEX 50 W×8-400, SIGMA) and the DOWEX was removed by spinning at 12,000 g for 10 min in the centrifuge. An aliquot (70 μL) of the supernatant was added to 100 μL of scintillation fluid, and the samples were counted in a liquid scintillation counter (1450 Microbeta Jet, Wallac). Specific NOS activity was reported as the difference between the activity recovered from the test solution and that observed in a control sample containing 240 mM of the inhibitor L-NMMA. All assays were performed at least in duplicate. Standard deviations are 10% or less.
Primary stock solutions of each test compound were prepared in distilled water on the day of study to obtain a final concentration of 6 mM. For the determination of IC50 values, 11 test compound concentrations were prepared as 3-fold serial dilutions. Test compounds were tested in the iNOS assay at a concentration of 1000 μM to 0.0169 μM. The vehicle of the test compound or inhibitor, distilled water, was used as blank control. For non-specific activity, 100 μM L-NMMA was run in parallel as a control.
All incubations were performed in duplicate
The reaction mixture was prepared on ice by the addition of the following components to the appropriate well of a 1.0 mL 96-well polypropylene plate:
10 μL of test compound, reference inhibitor, or control (vehicle or L-NMMA) solution;
25 μL of Reaction Buffer (50 mM Tris-HCl, 6 μM BH4, 2 μM FMN, 2 μM FAD);
5 μL of 10 mM NADPH solution;
5 μL of 1 μM Calmodulin; and
The reaction mixture was pre-incubated at room temperature for 15 minutes. Following this pre-incubation, the reaction was initiated by the addition of 5 μL of the substrate L-arginine (1 μCi of [^3H]-L-Arginine+30 μM of unlabeled L-Arginine) to the reaction mixture. The total reaction volume was 60 μL. The assay plate containing the reaction mixtures was sealed and incubated at 37° C. for 30 minutes. At the end of this incubation period, 400 μL of ice-cold Stop Buffer (the EDTA in the Stop Buffer chelates all of the available calcium) was added to each well to stop the reaction. 100 μL of equilibrated resin pH 5.5 was added to each of the assay wells. The reaction samples were vortexed and transferred to spin cups, after-which they were centrifuged at 13,000 rpm for 30 sec. The spin cups were removed from the holder and […] (containing the unbound L-citrulline) were added to the appropriate wells of a 96-well liquid scintillation plate. 175 μL of scintillation fluid were also added to each well. The plate was sealed, and radioactivity was quantitated using a Microbeta liquid scintillation counter.
Data were analyzed using a Sigmoidal dose-response (variable slope) curve to determine the IC50 value of the test compound. Y=Bottom+(Top−Bottom)/(1+10^((Log IC50−X)*Hill Slope))

[4] = test system: cardiogenic shock; conditions: human, randomized trial of 30 patients; reduced from 67%; cited from earlier work
[5] = test system: migraine; conditions: human, single i.v. administration; cited from earlier work
[6] = test system: persistent shock; conditions: human, up to 30 days; cited from earlier work
[7] = test system: migraine attack; conditions: human, open pilot study; cited from earlier work

CN(C)CCN1CCSc2cc(NC(=N)c3ccco3)ccc21 [Compound 19, N-(4-(2-(dimethylamino)ethyl)-3,4-dihydro-2H-benzo[b][1,4]thiazin-7-yl)furan-2-carboximidamide]
Selectivity eNOS/nNOS [1]: 676
IC50 [1]: 0.14 µM
IC50 [2]: 94.7 µM
IC50 [3]: 136 µM

CNCCN1CCSc2cc(NC(=N)c3ccco3)ccc21 [Compound 20, N-(4-(2-(methylamino)ethyl)-3,4-dihydro-2H-benzo[b][1,4]thiazin-7-yl)furan-2-carboximidamide]
Selectivity eNOS/nNOS [1]: 290
IC50 [1]: 0.16 µM
IC50 [2]: 46.4 µM
IC50 [3]: 268 µM

N=C(Nc1ccc2c(c1)SCCN2CCCN1CCCC1)c1cccs1 [Compound 21, N-(4-(3-(pyrrolidin-1-yl)propyl)-3,4-dihydro-2H-benzo[b][1,4]thiazin-7-yl)thiophene-2-carboximidamide]
Selectivity eNOS/nNOS [1]: 71.4
IC50 [1]: 0.14 µM
IC50 [2]: 10 µM
IC50 [3]: 49.6 µM

CN(C)CCCN1CCSc2cc(NC(=N)c3cccs3)ccc21 [Compound 22, N-(4-(3-(Dimethylamino)propyl)-3,4-dihydro-2H-benzo[b][1,4]thiazin-7-yl)thiophene-2-carboximidamide]
Selectivity eNOS/nNOS [1]: 864
IC50 [1]: 0.014 µM
IC50 [2]: 12.1 µM
IC50 [3]: 115 µM

CNCCCN1CCSc2cc(NC(=N)c3cccs3)ccc21 [Compound 23, N-(4-(3-(methylamino)propyl)-3,4-dihydro-2H-benzo[b][1,4]thiazin-7-yl)thiophene-2-carboximidamide]
Selectivity eNOS/nNOS [1]: 664
IC50 [1]: 0.028 µM
IC50 [2]: 18.6 µM
IC50 [3]: 172 µM

CCNCCN1CCSc2ccc(NC(=N)c3cccs3)cc21 [Compound 24, N-(4-(2-(ethylamino)ethyl)-3,4-dihydro-2H-benzo[b][1,4]thiazin-6-yl)thiophene-2-carboximidamide]
Selectivity eNOS/nNOS [1]: 89
IC50 [1]: 0.05 µM
IC50 [2]: 4.45 µM
IC50 [3]: 82.3 µM

N=C(Nc1ccc2c(c1)N(CCN1CCCC1)CCS2)c1cccs1 [Compound 25, N-(4-(2-(pyrrolidin-1-yl)ethyl)-3,4-dihydro-2H-benzo[b][1,4]thiazin-6-yl)thiophene-2-carboximidamide]
Selectivity eNOS/nNOS [1]: 90.5
IC50 [1]: 0.2 µM
IC50 [2]: 18.1 µM
IC50 [3]: 43.6 µM

N=C(Nc1ccc2c(c1)N(CCNCCO)CCS2)c1cccs1 [Compound 26, N-(4-(2-(2-hydroxyethylamino)ethyl)-3,4-dihydro-2H-benzo[b][1,4]thiazin-6-yl)thiophene-2-carboximidamide]
Selectivity eNOS/nNOS [1]: 56.5
IC50 [1]: 0.15 µM
IC50 [2]: 8.48 µM
IC50 [3]: 60.1 µM

CN(C)CCN1CCSc2ccc(NC(=N)c3cccs3)cc21 [Compound 27, N-(4-(2-(dimethylamino)ethyl)-3,4-dihydro-2H-benzo[b][1,4]thiazin-6-yl)thiophene-2-carboximidamide]
Selectivity eNOS/nNOS [1]: 268.4
IC50 [1]: 0.13 µM
IC50 [2]: 34.9 µM
IC50 [3]: 66.5 µM

CNCCN1CCSc2ccc(NC(=N)c3cccs3)cc21 [Compound 28, N-(4-(2-(methylamino)ethyl)-3,4-dihydro-2H-benzo[b][1,4]thiazin-6-yl)thiophene-2-carboximidamide]
Selectivity eNOS/nNOS [1]: 107.2
IC50 [1]: 0.08 µM
IC50 [2]: 8.58 µM
IC50 [3]: 348 µM

N=C(Nc1ccc2c(c1)N(C1CCNCC1)CCS2)c1cccs1 [Compound 29, N-(4-(piperidin-4-yl)-3,4-dihydro-2H-benzo[b][1,4]thiazin-6-yl)thiophene-2-carboximidamide]
Selectivity eNOS/nNOS [1]: 396
IC50 [1]: 0.11 µM
IC50 [2]: 43.6 µM
IC50 [3]: 76.8 µM

COC(=O)[C@@H](N)CCCNC(=N)N[N+](=O)[O-] [L-NAME, N^G-Nitro-L-arginine methyl ester]
patient mortality [4]: 27%

CN=C(N)NCCC[C@H](N)C(=O)O.Cl [L-NMMA, L-N^G methylarginine hydrochloride]
response rate [5]: 67%
survival rate [6]: 72%

C/C1=C2/[N-][C@H]([C@H](CC(N)=O)[C@@]2(C)CCC(=O)NC[C@@H](C)OP(=O)([O-])O[C@H]2[C@@H](O)[C@@H](n3cnc4cc(C)c(C)cc43)O[C@@H]2CO)[C@]2(C)N=C(/C(C)=C3N=C(/C=C4N=C1[C@@H](CCC(N)=O)C\4(C)C)[C@@H](CCC(N)=O)[C@]\3(C)CC(N)=O)[C@@H](CCC(N)=O)[C@]2(C)CC(N)=O.[Co+3].[OH-] [hydroxycobalamin]
patients with a reduction in the frequency of migraine attack of 50% [7]: 53%

— US8618286B2, “Benzoxazines, benzothiazines, and related compounds having NOS inhibitory activity” (NeurAxon, Inc., priority 2008, dated 2013)
